Reference: patent US10245272B2, “Transmembrane penetration enhancer” (priority 2010, dated 2019)

Experiment: Amount of clonazepam in blood, brain and skin after transdermal application (HPLC)
Conditions: rats
Procedure: In support of another embodiment of the present invention, a supporting experiment was conducted where the backs of 3 white male rats that weighed approximately 150 g. were shaved and the backs of the rats were shaved and washed with lukewarm water and approximately 25 cm^2 of the base of a transmembrane/transdermal penetration enhancer described in Example 14 was administered. The base contained 10 mg of clonazepam and after six hours from the time of the application, the rats were killed and blood, brain and skin were taken from the application area. The amount of clonazepam in the organs and tissues of the killed rats were identified by HPLC method.

[1] = base of Example 14 with 10 mg clonazepam on approx. 25 cm^2, six hours after application

## O=C1CN=C(c2ccccc2Cl)c2cc([N+](=O)[O-])ccc2N1 [clonazepam]
[1]
  amount of clonazepam in 1 cm^2 of the skin at the application area: 0.04 ± 0.002 mg
  amount of clonazepam in 1 cm^3 of blood: 0.043 ± 0.002 mg
  amount of clonazepam in 1 g of brain: 0.016 ± 0.001 mg
Base of Example 14 with 10 mg clonazepam, during 6 hours
  amount of penetrated/permeated clonazepam through 25 cm^2 application area: 60 % of applied amount
